In patent publication US6063774A, “Tricyclic quinoxaline derivatives as neuroprotective agents” (Warner-Lambert Company, priority 1998, dated 2000):

How the values were obtained:
[1] = target: AMPA receptors; assay: AMPA receptor binding (Honore et al.); details: Table 1
[2] = target: kainate site (non-NMDA receptor); assay: kainate site binding (London and Coyle); details: Table 1
[3] = target: T1, glycine site of the NMDA receptor (Rattus norvegicus, UniProt P35439); assay: glycine site of NMDA receptor binding (Jones et al.); details: Table 1
T1 construct: from tissue

[4] = tested on: mice; assay: maximal electroshock time course in mice, with and without probenecid pretreatment; format: in vivo
Procedure: FIG. 1 plots maximal electroshock time course with Compound 1 of the invention, with and without probenecid pretreatment in mice.
The graph is the percent of mice protected versus the time in minutes. The solid circle (.circle-solid.) is the compound from Example 1. In a separate experiment the solid square (.box-solid.) the compound from Example 1 (10 mg/kg, IV) was given to mice (n=5) pretreated with probenecid 30 minutes before the compound.

IC50 [1] [nM] | IC50 KA [2] [µM] | IC50 [3] [nM] | Structure (SMILES) | effect of probenecid pretreatment on protection against maximal electroshock ([4]; 10 mg/kg IV, n=5 mice, probenecid 30 minutes before the compound) | protection against maximal electroshock (in words) ([4]; 30 mg/kg IV, 5 mice, percent of mice protected versus time plotted in FIG. 1 only)
850 | 1.55 | 200 | Cc1c([N+](=O)[O-])cc2[nH]c(=O)c(=O)n3c2c1CN(C)C(=O)C3 [Example 1, 6-8-Dimethyl-5-nitro-7,8-dihydro-3H-d,8,10a-triaza-cyclo-hepta[de]naphthalene-1,2,9-trione] | positively modulated by ion transporter substrates such as probenecid | indicative of the in vivo potency
4500 | 4.9 | 600 | Cc1c([N+](=O)[O-])cc2[nH]c(=O)c(=O)n3c2c1CN(C)C(=O)C3c1ccccc1 (centres unmarked) [Example 2, 6,8-Dimethyl-5-nitro-10-phenyl-7,8-dihdro-3H-3,8,10a-triaza-cyclohepta(de)morphthalene-1,2,9-trione] | – | –
